# Experiments:
# [1] = test system: most sensitive marine species (typically Skeletonema); test: Toxicity to the most sensitive marine species (EC50); conditions: environmental profile of dispersion system components
# From the text: (§1) With this in mind, it was desired to create an environmentally friendly oil phase system useful for making inverse emulsion polymers. The adopted definition of environmentally friendly are the rules that govern offshore chemical use in the North Sea. The environmental impact of a chemical is defined by three tests: bioaccumulation, biodegradation and toxicity. In order for a chemical to be used without restriction offshore in the North Sea it must satisfy two of the following three criteria: • 1. Biodegradation must be greater than 60%, if less than 20% it is automatically marked for substitution. • 2. Bioaccumulation as measured by octanol/water partitioning coefficient (log Po/w) must be below 3 (or have a molecular weight>700). • 3. Toxicity to the most sensitive marine species (typically Skeletonema) must be greater than LC50 or EC50 of 10 ppm.
# [2] = Bioaccumulation as octanol/water partitioning coefficient (log Po/w); format: physicochemical
# From the text: as §1
# [3] = From the text: as §1, with “ppm. […]” for “ppm.”
# An embodiment of the present invention is an environmentally friendly oil phase system comprising an organic solvent and lecithin. The immiscible organic solvent can be a hydrocarbon solvent that is aliphatic or at least one oil derived from one or more natural products, and are at least 60% biodegradable after 28 days as determined by the Organization for Economic Cooperation and Development, Procedure OECD 306, its text incorporated by reference. […]
# [4] = cited from earlier work
Substance,Toxicity EC50 [1],Bioaccumulation log Po/w [2],"Biodegradation, t = 28 days [3]",log P [4]
POE(4)-sorbitan monostearate,165 ppm,<3,27,
POE(5)-sorbitan monooleate,20 ppm,<3,52,
sorbitan monooleate,,,,> 3
